Data: publication PMC8286840, “Identifying SARS-CoV-2 antiviral compounds by screening for small molecule inhibitors of Nsp3 papain-like protease” (Biochemical Journal, 2021)
Structures can show the parent of a compound that is named as a salt. Where two headings read alike, the source gives them in different places. Where a SMILES comes first, the peptide text is derived from it. [ ]: non-standard residue; d: D form. Dolaproine = CO[C@@H]([C@@H]1CCCN1)[C@@H](C)C(=O)O; Dil = CC[C@H](C)[C@H](NC)[C@@H](CC(=O)O)OC; NMeV = CN[C@H](C(=O)O)C(C)C

How the values were obtained:
[1] = target: T1, SARS-CoV-2 PLpro (nsp3 1564–1878) (Severe acute respiratory syndrome coronavirus 2, UniProt P0DTD1); test: biochemical; set-up: FRET-quenched peptide (Pro3) cleavage by PLpro, 10 min pre-incubation, slope over 20 min, normalised to no-compound control; conditions: low concentration screen, read-out: % of control remaining
[2] = target: T1, SARS-CoV-2 PLpro (nsp3 1564–1878); test: biochemical; set-up: FRET-quenched peptide (Pro3) cleavage by PLpro, 10 min pre-incubation, slope over 20 min, normalised to no-compound control; conditions: high concentration screen, read-out: % of control remaining

With `CN1[C@@H]2C[C@@H](OC(=O)[C@H](CO)c3ccccc3)C[C@H]1[C@@H]1O[C@@H]12` [Scopolamine] the remaining activity at 1.25 µM ([1]; Well no.=2245) was 100% and the remaining activity at 3.75 µM ([2]; Well no.=2245) was 100%.

Work on `CS(=O)(=O)c1ccc(-c2cnc(N)c(C(=O)Nc3ccccc3)n2)cc1` [VE-821] yielded a remaining activity at 1.25 µM ([1]; Well no.=4790) of 97.8% and a remaining activity at 3.75 µM ([2]; Well no.=4790) of 96.4%.

`NCC(=O)N[C@@H](CCCN=C(N)N)C(=O)NCC(=O)N[C@@H](CC(=O)O)C(=O)N[C@@H](CO)C(=O)N1CCC[C@H]1C(=O)O` [GRGDSP (TFA)] was tested, and the remaining activity at 1.25 µM ([1]; Well no.=7558) was 102% and the remaining activity at 3.75 µM ([2]; Well no.=7558) was 109%.

Molecule `NCC=CC(=O)O` (stereo in doubt) [cis-4-Aminocrotonic acid] has a remaining activity at 1.25 µM ([1]; Well no.=114) of 97.3% and a remaining activity at 3.75 µM ([2]; Well no.=114) of 98.2%.

`C[C@H]1CCC[C@H](O)CCCCCc2cc(O)cc(O)c2C(=O)O1` gave a remaining activity at 1.25 µM ([1]; Well no.=3340) of 91.6% and a remaining activity at 3.75 µM ([2]; Well no.=3340) of 94%.

`Cc1nc(C(=O)NCC(=O)O)c(O)c2ccc(Oc3ccccc3)cc12` [FG-4592] was tested, and the remaining activity at 1.25 µM ([1]; Well no.=4995) was 102% and the remaining activity at 3.75 µM ([2]; Well no.=4995) was 105%.

Work on `CCNC(=O)N1CCN(CCCC(c2ccc(F)cc2)c2ccc(F)cc2)CC1` [Amperozide hydrochloride] yielded a remaining activity at 1.25 µM ([1]; Well no.=165) of 92.6% and a remaining activity at 3.75 µM ([2]; Well no.=165) of 96.4%.

With `Nc1ncnc2c1ccn2[C@@H]1O[C@H](CO)[C@@H](O)[C@H]1O` [Tubercidin] the remaining activity at 1.25 µM ([1]; Well no.=8060) was 96.1% and the remaining activity at 3.75 µM ([2]; Well no.=8060) was 95.7%.

`COc1cc(/C=C(\C#N)C(=O)c2ccc(O)c(O)c2)cc(I)c1O` [I-OMe-Tyrphostin AG 538] showed a remaining activity at 1.25 µM ([1]; Well no.=1420) of 93% and a remaining activity at 3.75 µM ([2]; Well no.=1420) of 92.9%.

With `Nc1nccc(-c2c(-c3ccc(F)cc3)ncn2C2CCCCC2)n1` [4-[1-cyclohexyl-4-(4-fluorophenyl)-1H-imidazol-5-yl]-2-pyrimidinamine dihydrochloride] the remaining activity at 1.25 µM ([1]; Well no.=5961) was 102% and the remaining activity at 3.75 µM ([2]; Well no.=5961) was 102%.

`C[n+]1cc2c3c(ccc2c2ccc4cc5c(cc4c21)OCO5)OCO3` [Sanguinarine chloride] was tested, and the remaining activity at 1.25 µM ([1]; Well no.=1458) was 87.2% and the remaining activity at 3.75 µM ([2]; Well no.=1458) was 86.2%.

For `O=c1ccn([C@@H]2O[C@H](COP(=O)(O)OP(=O)(O)OP(=O)(O)OP(=O)(O)OC[C@H]3O[C@@H](n4ccc(=O)[nH]c4=O)[C@H](O)[C@@H]3O)[C@@H](O)[C@H]2O)c(=O)[nH]1` [Diquafosol (tetrasodium)], the remaining activity at 1.25 µM ([1]; Well no.=8837) was 101%, the remaining activity at 3.75 µM ([2]; Well no.=8095) was 100% and the remaining activity at 3.75 µM ([2]; Well no.=8837) was 87.9%.

Molecule `COc1cc(/C=C/C(=O)CC(=O)/C=C/c2ccc(O)c(OC)c2)ccc1O` [Curcumin] has a remaining activity at 1.25 µM ([1]; Well no.=3177) of 112%, a remaining activity at 1.25 µM ([1]; Well no.=3949) of 106% and a remaining activity at 3.75 µM ([2]; Well no.=3177) of 105%. It also gave a remaining activity at 3.75 µM ([2]; Well no.=3949) of 102%.

Molecule `CC(C)N(CCC(=O)c1ccc2ccccc2c1)Cc1ccccc1` [ZM 39923 hydrochloride - 3-Benzylisopropylamino-1-naphthalen-2-yl-propan-1-one hydrochloride] has a remaining activity at 1.25 µM ([1]; Well no.=2390) of 96.3% and a remaining activity at 3.75 µM ([2]; Well no.=2390) of 98.1%.

For `Nc1ccc(O)c(C(=O)O)c1` [5-Aminosalicylic acid], the remaining activity at 1.25 µM ([1]; Well no.=2121) was 105% and the remaining activity at 3.75 µM ([2]; Well no.=2121) was 104%.

`Cc1cccc(-c2[nH]ncc2-c2ccc3ncccc3n2)n1` [RepSox] gave a remaining activity at 1.25 µM ([1]; Well no.=5490) of 96.3% and a remaining activity at 3.75 µM ([2]; Well no.=5490) of 95.5%.

Work on `CC1CCc2c(N3CCC(O)CC3)c(F)cc3c(=O)c(C(=O)O)cn1c23` (stereo not drawn) [Nadifloxacin] yielded a remaining activity at 1.25 µM ([1]; Well no.=2003) of 96.2% and a remaining activity at 3.75 µM ([2]; Well no.=2003) of 94.8%.

`COc1ccc2c(c1OC)C(=O)O[C@H]2[C@@H]1c2cc3c(cc2CCN1C)OCO3` [(+)-Hydrastine] gave a remaining activity at 1.25 µM ([1]; Well no.=614) of 96.4% and a remaining activity at 3.75 µM ([2]; Well no.=614) of 97.7%.

In the case of `CC(C)Cc1ccc(C(C)C(=O)O)cc1` (stereo not drawn) [Ibuprofen], the remaining activity at 1.25 µM ([1]; Well no.=1901) is reported as 95.1% and the remaining activity at 3.75 µM ([2]; Well no.=1901) is reported as 97%.

`CC[C@H](C)[C@@H]([C@@H](CC(=O)N1CCC[C@H]1[C@H](OC)[C@@H](C)C(=O)N[C@@H](Cc1ccccc1)C(=O)O)OC)N(C)C(=O)[C@@H](NC(=O)[C@@H](NC)C(C)C)C(C)C` [MMAF (Hydrochloride)] (H-[NMeV]V[Dil][Dolaproine]F-OH) showed a remaining activity at 1.25 µM ([1]; Well no.=7650) of 89.6% and a remaining activity at 3.75 µM ([2]; Well no.=7650) of 89.5%.

Molecule `O=C(O)Cc1ccccc1Nc1c(Cl)cccc1Cl` [Diclofenac sodium] has a remaining activity at 1.25 µM ([1]; Well no.=580) of 94% and a remaining activity at 3.75 µM ([2]; Well no.=580) of 96.6%.

For `O=c1ccn([C@@H]2O[C@H](COP(=O)(O)OP(=O)(O)OP(=O)(O)O)[C@@H](O)[C@H]2O)c(=O)[nH]1` [Uridine triphosphate], the remaining activity at 1.25 µM ([1]; Well no.=8933) was 95.1% and the remaining activity at 3.75 µM ([2]; Well no.=8933) was 97.6%.

Molecule `O=c1cc(N2CCOCC2)oc2c(-c3ccccc3)cccc12` [LY 294002 hydrochloride - 2-(4-Morpholinyl)-8-phenyl-4H-1-benzopyran-4-one hydrochloride] has a remaining activity at 1.25 µM ([1]; Well no.=2344) of 97.3% and a remaining activity at 3.75 µM ([2]; Well no.=2344) of 98.8%.

Molecule `C[C@H]1CCCC(=O)CCC/C=C/c2cc(O)cc(O)c2C(=O)O1` [Zearalenone] has a remaining activity at 1.25 µM ([1]; Well no.=3148) of 97.2% and a remaining activity at 3.75 µM ([2]; Well no.=3148) of 97.8%.

For `COc1cc([C@@H]2c3cc4c(cc3[C@@H](O[C@@H]3O[C@@H]5CO[C@@H](C)O[C@H]5[C@H](O)[C@H]3O)[C@H]3COC(=O)[C@H]23)OCO4)cc(OC)c1O` [Etoposide], the remaining activity at 1.25 µM ([1]; Well no.=454) was 103%, the remaining activity at 1.25 µM ([1]; Well no.=1670) was 99.8% and the remaining activity at 1.25 µM ([1]; Well no.=6154) was 102%. It also gave a remaining activity at 3.75 µM ([2]; Well no.=454) of 97.1%, a remaining activity at 3.75 µM ([2]; Well no.=1670) of 99.3% and a remaining activity at 3.75 µM ([2]; Well no.=3279) of 102%. For the same molecule, the remaining activity at 3.75 µM ([2]; Well no.=6154) was 103%.

Molecule `O=C1C[C@@H](c2ccc(O)c(O)c2)Oc2cc(O)cc(O)c21` [Eriodictyol] has a remaining activity at 1.25 µM ([1]; Well no.=3259) of 104% and a remaining activity at 3.75 µM ([2]; Well no.=3259) of 103%.

Molecule `COc1cc2c3cc1Oc1c(OC)c(OC)cc4c1[C@@H](Cc1ccc(OC(=O)c5ccc([N+](=O)[O-])cc5)c(c1)Oc1ccc(cc1)C[C@@H]3N(C)CC2)N(C)CC4` [E6 Berbamine] has a remaining activity at 1.25 µM ([1]; Well no.=3237) of 97.5% and a remaining activity at 3.75 µM ([2]; Well no.=3237) of 95%.

`Clc1ccc(C(Cn2ccnc2)OCc2csc3c(Cl)cccc23)c(Cl)c1` (stereo not drawn) [Sertaconazole nitrate] showed a remaining activity at 1.25 µM ([1]; Well no.=5411) of 89.7% and a remaining activity at 3.75 µM ([2]; Well no.=5411) of 93%.

`NC(=O)C(=O)O` [Sodium Oxamate] gave a remaining activity at 1.25 µM ([1]; Well no.=944) of 97.2% and a remaining activity at 3.75 µM ([2]; Well no.=944) of 96.9%.

`C/C(=C/C(=O)O)C(=O)O` [Citraconic acid] gave a remaining activity at 1.25 µM ([1]; Well no.=6261) of 102% and a remaining activity at 3.75 µM ([2]; Well no.=6261) of 89.6%.

With `CC(C)=CCC/C(C)=C/CC/C(C)=C/CC/C=C(\C)CC/C=C(\C)CCC=C(C)C` [Squalene] the remaining activity at 1.25 µM ([1]; Well no.=7255) was 98.6% and the remaining activity at 3.75 µM ([2]; Well no.=7255) was 96.6%.

For `COc1cc2c(cc1OC)[C@H]1[C@@H](C)c3ccc(OC)c(OC)c3CN1CC2` [Corydaline], the remaining activity at 1.25 µM ([1]; Well no.=3252) was 101% and the remaining activity at 3.75 µM ([2]; Well no.=3252) was 102%.
